# Reference: publication PMC11997541, “Synthesis and Biological Activity of Ultrashort Antimicrobial Peptides Bearing a Non‐Coded Amino Acid” (Journal of Peptide Science, 2025)
# Residues, ends and D or L forms follow the SMILES beside them.
# Legend:
# [1] = test system: S. ent. ATCC 13076; assay: Kirby–Bauer disk diffusion; format: cell-based, Salmonella enterica; conditions: 20 h; for diameter of growth inhibition, S. ent. ATCC 13076: 100 μg peptide per 6 mm disk, Mueller–Hinton pH 7.2–7.4, 37°C, — read as no inhibition
# Protocol: (§1) The antibacterial activity was tested on Gram‐positive ( Staphylococcus aureus ATCC 25923, Streptococcus pyogenes ATCC 19615, Listeria monocytogenes ATCC 7644, Bacillus subtilis ATCC […], Enterococcus faecalis ATCC 29212, E. faecalis ATCC 51299, and some clinical isolates, Streptococcus mitis , Streptococcus oralis , S. pyogenes Group A and Streptococcus Group G), Gram‐negative ( Klebsiella aerogenes ATCC 13048, Salmonella enterica ATCC […], Escherichia coli ATCC 25922, Pseudomonas aeruginosa ATCC 27853, Acinetobacter baumannii ATCC […], Klebsiella pneumoniae ATCC 13883, Proteu mirabilis ATCC 14153) bacterial strains, and Saccharomyces cerevisiae ATCC 9763, according to the standardized disk diffusion Kirby–Bauer method.
# (§2) Peptide solutions in DMSO were adsorbed into paper disks (Macherey‐Nagel 615, Germany) of 6 mm in diameter. Every disk was loaded with 100 μg of peptide. The bacteria inoculum was of 0.5 Mc Farland, corresponding to 1–2 x 10^8 CFU/mL. The tests were carried out on Mueller–Hinton culture medium at pH 7.2–7.4 with incubation at 37°C for 20 h. Peptide activity was determined by measuring the diameters (in millimeters) of bacteria/fungi growth inhibition around the paper disks.
# [2] = no CD signal in phosphate buffer (PB) pH 7.4, peptide 1 mM, room temperature
# Protocol: Electronic CD curves in the amide region (190–260 nm) were obtained on a Jasco (Tokyo, Japan) model J‐1500 spectropolarimeter. A fused quartz cell of 0.02 cm pathlength (Hellma, Mühlheim, Germany) was used to record spectra in phosphate buffer pH 7.4 (PB), and aqueous sodium dodecyl sulfate (SDS, 30 mM). Spectra were collected at room temperature with peptide concentrations of 1 mM. After baseline subtraction, the values recorded were transformed into [θ]T, the total molar ellipticity (deg × cm^2 × dmol^−1) by means of the JASCO software Spectra Manager.
# [3] = Peptide stability in serum; format: in vitro ADME; conditions: human serum in HEPES 25 mM pH 7.6, 37°C, over 24 h, HPLC or HPLC–MS, triplicate
# Protocol: The peptides were dissolved in DMSO at a concentration of 5 mg/mL. In Eppendorf tubes, 1 mL of HEPES buffer (25 mM, pH = 7.6) was temperature equilibrated at 37°C before adding 250 μL of human serum and 20 μL of peptide solution. The reaction was monitored for 24 h. At fixed intervals, 100 μL of the solution was withdrawn and added with 200 μL of absolute ethanol. The sample was kept on ice for 15 min and then centrifuged at 16,000 g for 5 min. Finally, the supernatant solution was analyzed by HPLC or HPLC–MS..
# A peptide of similar length, not resistant to degradation in serum, was used as a positive test. The peptide sequence is as follows: Tyr‐Ser‐Ser‐Phe‐Leu.
# To verify peptide stability in buffer solution, samples containing peptide solutions, buffer, and ethanol were also analyzed. All of the degradation experiments were carried out in triplicate.
# [4] = test system: various bacterial strains, both Gram‐positive and Gram‐negative, as well as S. cerevisiae; assay: Kirby–Bauer disk diffusion, whole panel; format: cell-based; conditions: 100 μg peptide per disk, 37°C, 20 h, all strains tested
# Protocol: as §1, §2
structure (smiles),measurement,setting,value
"CCCCCCCCCCCCCCCC(=O)N[C@@H](Cc1c[nH]cn1)C(=O)N[C@@H](C)C(=O)N[C@H](C)C(=O)N[C@@H](Cc1c[nH]cn1)C(N)=O [P0, Palm‐His‐Ala‐D‐Ala‐His‐NH2] (HELM PEPTIDE1{[CCCCCCCCCCCCCCCC(=O)[*:2]].H.A.[dA].H.[am]}$$$$V2.0)","diameter of growth inhibition, S. ent. ATCC 13076",[1],10 mm
same,"activity against Salmonella enterica ATCC 13076, in words","[1]; 100 μg peptide per disk, 37°C",selectively active
same,"solubility in water, in words",[2],poor solubility in water
"CCCCCCCCCCCCCCCC(=O)N[C@@H](Cn1ccnc1)C(=O)N[C@@H](C)C(=O)N[C@H](C)C(=O)N[C@@H](Cn1ccnc1)C(N)=O [P1, Palm‐L‐His*‐Ala‐D‐Ala‐L‐His*‐NH2]","solubility in water, in words",[2],poor solubility in water
"CCCCCCCCCCCCCCCC(=O)N[C@H](Cn1ccnc1)C(=O)N[C@@H](C)C(=O)N[C@H](C)C(=O)N[C@H](Cn1ccnc1)C(N)=O [P2, Palm‐D‐His*‐Ala‐D‐Ala‐D‐His*‐NH2]","serum stability, ranking in words",[3],best candidates in terms of serum stability
same,"solubility in water, in words",[2],poor solubility in water
"CC(=O)N[C@@H](Cc1c[nH]cn1)C(=O)N[C@@H](C)C(=O)N[C@H](C)C(=O)N[C@@H](Cc1c[nH]cn1)C(=O)NCCCCCCCCCCC(N)=O [P3, Ac‐His‐Ala‐D‐Ala‐His‐Aun‐NH2] (HELM PEPTIDE1{[ac].H.A.[dA].H.[O=C(CCCCCCCCCCN[*:1])[*:2]].[am]}$$$$V2.0)","antimicrobial activity over the panel, in words",[4],no activity
"CCCCCCCCCCCC(=O)N[C@@H](Cc1c[nH]cn1)C(=O)N[C@@H](C)C(=O)N[C@H](C)C(=O)N[C@@H](Cc1c[nH]cn1)C(N)=O [P6, Laur‐His‐Ala‐D‐Ala‐His‐NH2] (HELM PEPTIDE1{[CCCCCCCCCCCC(=O)[*:2]].H.A.[dA].H.[am]}$$$$V2.0)","diameter of growth inhibition, S. ent. ATCC 13076",[1],9 mm
"CCCCCCCCCCCC(=O)N[C@H](Cn1ccnc1)C(=O)N[C@@H](C)C(=O)N[C@H](C)C(=O)N[C@H](Cn1ccnc1)C(N)=O [P8, Laur‐D‐His*‐Ala‐D‐Ala‐D‐His*‐NH2]","serum stability, ranking in words",[3],best candidates in terms of serum stability
